Experimental data taken from the NIST ThermoML archive (doi:10.1016/j.jct.2015.06.020).
Numbers after ± are expanded uncertainties.

Key:
[1] = molar heat capacity at constant pressure; conditions: 101.33 kPa, Crystal, Large sample (1 g) DSC
[2] = Molar enthalpy of transition or fusion; conditions: Crystal; DSC
[3] = Crystal; DTA

NC(=NO)c1nonc1N [4-amino-3-furazancarboxamidoxime]
[1]
Conditions | molar heat capacity at constant pressure [J/K/mol]
283.15 K | 173.37 ± 3.5
288.15 K | 175.71 ± 3.5
293.15 K | 178.06 ± 3.6
298.15 K | 180.4 ± 3.6
303.15 K | 182.75 ± 3.7
308.15 K | 185.1 ± 3.7
313.15 K | 187.44 ± 3.8
318.15 K | 189.79 ± 3.8
323.15 K | 192.13 ± 3.8
328.15 K | 194.48 ± 3.9
333.15 K | 196.83 ± 3.9
338.15 K | 199.17 ± 4
343.15 K | 201.52 ± 4
348.15 K | 203.86 ± 4.1
353.15 K | 206.21 ± 4.1

Conditions | Molar enthalpy of transition or fusion [kcal/mol] | Normal melting temperature [°C]
[2] | 8.99 ± 0.213 | –
[3] | – | 180.41 ± 0.86
